In patent US10954252B1, “Inhibitors of human immunodeficiency virus replication” (ViiV HEALTHCARE UK (NO.5) LIMITED, priority 2017, dated 2021):

Columns and labels:
[1] = tested on: recombinant NL4-3 virus (nef section replaced with Renilla luciferase gene) in MT-2 cells; assay: HIV cell culture assay (antiviral activity, luciferase readout); type: cell-based; conditions: MT-2 cells infected for 4-5 days with recombinant NL4-3 luciferase virus
In short: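 Serially diluted compounds were present throughout a 4-5 day infection of MT-2 cells by recombinant NL4-3 whose nef region partly encodes Renilla luciferase. Antiviral activity was taken from live-cell luciferase signal, with the 50% effective concentration fitted by the exponential median effect equation.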

[2] = Compound cytotoxicity, XTT-based colorimetric assay; type: cell-based; conditions: human, uninfected MT2 cells
In short: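 XTT colorimetric read-out on day 4 gave CC50 values, using MT2 cells left uninfected but otherwise handled as in the antiviral assay.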

SMILES | EC50 ([1]; Table 1a) [nM] | CC50 at 4 days ([2]; Table 1a, day 4, XTT) [nM] | CC50 at 4 days ([2]; Table 1, day 4, XTT) [nM] | further results
COc1cccc2nc([C@H](Cc3cc(F)cc(F)c3)NC(=O)Cn3nc(C(F)F)c4c3C(F)(F)[C@@H]3C[C@H]43)n(-c3ccc(Cl)c4c(NS(C)(=O)=O)nn(C)c34)c(=O)c12 (mixture of isomers) [Example 169, N—((S)-1-(3-(4-chloro-1-methyl-3-(methylsulfonamido)-1H-indazol-7-yl)-5-methoxy-4-oxo-3,4-dihydroquinazolin-2-yl)-2-(3,5-difluorophenyl)ethyl)-2-((3bS,4aR)-3-(difluoromethyl)-5,5-difluoro-3b,4,4a,5-tetrahydro-1H-cyclopropa[3,4]cyclopenta[1,2-c]pyrazol-1-yl)acetamide] | 119 | > 1000 | – | –
CS(=O)(=O)NC(=O)c1cc(-c2cc3[nH]ncc3nc2[C@H](Cc2cc(F)cc(F)c2)NC(=O)Cn2nc(C(F)F)c3c2C(F)(F)[C@@H]2C[C@H]32)ccc1Cl [Example 10.18, 2-Chloro-5-(5-((S)-1-(2-((3bS,4aR)-3-(difluoromethyl)-5,5-difluoro-3b,4,4a,5-tetrahydro-1H-cyclopropa[3,4]cyclopenta[1,2-c]pyrazol-1-yl)acetamido)-2-(3,5-difluorophenyl)ethyl)-1H-pyrazolo[4,3-b]pyridin-6-yl)-N-(methylsulfonyl)benzamide] | – | – | > 10000 | EC50 ([1]; Renilla, NL43, Table 1): 670 nM
O=C(Cn1nc(C(F)F)c2c1C(F)(F)[C@@H]1C[C@H]21)NC(Cc1cc(F)cc(F)c1)c1nc2cn[nH]c2cc1-c1ccc(OC(F)F)cc1 (single isomer, unassigned) [Example 3.10] | – | – | 6800 | EC50 ([1]; Renilla, NL43, Table 1): 320 nM
Cn1nc(NS(C)(=O)=O)c2c(Cl)ccc(-c3cc4[nH]cc(Cl)c4nc3[C@H](Cc3cc(F)cc(F)c3)NC(=O)Cn3nc(C(F)F)c4c3C(F)(F)[C@@H]3C[C@H]43)c21 (single isomer, unassigned) [Example 89] | – | > 10000 | – | EC50 ([1]; Renilla, NL43, Table 1a): 0.66 nM
COc1c(F)ccc2c(=O)n(-c3ccc(Cl)c4c(NS(C)(=O)=O)nn(C)c34)c([C@H](Cc3cc(F)cc(F)c3)NC(=O)Cn3ccc(C4CC4)n3)nc12 (single isomer, unassigned) [Example 111] | 92.6 | > 1000 | – | –
Cn1nc(NS(C)(=O)=O)c2c(Cl)ccc(-n3c([C@H](Cc4cc(F)cc(F)c4)NC(=O)Cn4ccc(C5CC5)n4)nc4c(F)ccc(F)c4c3=O)c21 (single isomer, unassigned) [Example 145] | 30.2 | > 1000 | – | –
COc1ccc2c(=O)n(-c3ccc(Cl)c4c(NS(C)(=O)=O)nn(C)c34)c([C@H](Cc3cc(F)cc(F)c3)NC(=O)Cn3nc(C(F)F)c4c3C(F)(F)C3CC43)nc2n1 (stereo in doubt) [Example 13.2, N—((S)-1-(3-(4-chloro-1-methyl-3-(methylsulfonamido)-1H-indazol-7-yl)-7-methoxy-4-oxo-3,4-dihydropyrido[2,3-d]pyrimidin-2-yl)-2-(3,5-difluorophenyl)ethyl)-2-((3bS,4aR)-3-(difluoromethyl)-5,5-difluoro-3b,4,4a,5-tetrahydro-1H-cyclopropa[3,4]cyclopenta[1,2-c]pyrazol-1-yl)acetamide] | – | – | > 10000 | EC50 ([1]; Renilla, NL43, Table 1): 18 nM
Cn1nc(NS(C)(=O)=O)c2c(Cl)ccc(-n3c([C@H](Cc4cc(F)cc(F)c4)NC(=O)Cn4nc(C(F)F)c5c4C(F)(F)[C@@H]4C[C@H]54)nc4c(F)ccc(F)c4c3=O)c21 (single isomer, unassigned) [Example 147] | 27.9 | > 1000 | – | –
Cn1nc(NS(C)(=O)=O)c2c(Cl)ccc(-n3c([C@H](Cc4cc(F)cc(F)c4)NC(=O)Cn4ccc(C5CC5)n4)nc4cc(F)cc(F)c4c3=O)c21 (single isomer, unassigned) [Example 131] | – | > 1000 | – | EC50 ([1]; Renilla, NL43, Table 1a): 111 nM
CS(=O)(=O)NC(=O)c1cc(-c2cc3[nH]ncc3nc2[C@H](Cc2cc(F)cc(F)c2)NC(=O)Cn2nc(C(F)F)c3c2C(F)(F)[C@@H]2C[C@H]32)ccc1F [Example 10.26, 5-(5-((S)-1-(2-((3bS,4aR)-3-(difluoromethyl)-5,5-difluoro-3b,4,4a,5-tetrahydro-1H-cyclopropa[3,4]cyclopenta[1,2-c]pyrazol-1-yl)acetamido)-2-(3,5-difluorophenyl)ethyl)-1H-pyrazolo[4,3-b]pyridin-6-yl)-2-fluoro-N-(methylsulfonyl)benzamide] | – | – | > 10000 | EC50 ([1]; Renilla, NL43, Table 1): 930 nM
Cn1nc(NS(C)(=O)=O)c2c(Cl)ccc(-n3c([C@H](Cc4cc(F)cc(F)c4)NC(=O)Cn4nc(C(F)(F)F)c5c4CCC5)nc4ncccc4c3=O)c21 [Example 52, N-[(1S)-1-[3-(4-chloro-3-methanesulfonamido-1-methyl-1H-indazol-7-yl)-4-oxo-3H,4H-pyrido[2,3-d]pyrimidin-2-yl]-2-(3,5-difluorophenyl)ethyl]-2-[3-(trifluoromethyl)-1H,4H,5H,6H-cyclopenta[c]pyrazol-1-yl]acetamide] | – | > 1000 | – | EC50 ([1]; Renilla, NL43, Table 1a): 0.039 nM
COC(=O)c1cccc(-c2cc3[nH]ncc3nc2[C@H](Cc2cc(F)cc(F)c2)NC(=O)Cn2nc(C(F)F)c3c2C(F)(F)[C@@H]2C[C@H]32)c1 [Example 10.8, Methyl 3-(5-((S)-1-(2-((3bS,4aR)-3-(difluoromethyl)-5,5-difluoro-3b,4,4a,5-tetrahydro-1H-cyclopropa[3,4]cyclopenta[1,2-c]pyrazol-1-yl)acetamido)-2-(3,5-difluorophenyl)ethyl)-1H-pyrazolo[4,3-b]pyridin-6-yl)benzoate] | – | – | > 10000 | EC50 ([1]; Renilla, NL43, Table 1): 1200 nM
Cn1nc(NS(C)(=O)=O)c2c(Cl)ccc(-n3c([C@H](Cc4cc(F)cc(F)c4)NC(=O)Cn4nc(C(F)F)c5c4C(F)(F)[C@@H]4C[C@H]54)nc4cc(C#N)ccc4c3=O)c21 (mixture of isomers) [Example 166, N—((S)-1-(3-(4-chloro-1-methyl-3-(methylsulfonamido)-1H-indazol-7-yl)-7-cyano-4-oxo-3,4-dihydroquinazolin-2-yl)-2-(3,5-difluorophenyl)ethyl)-2-((3bS,4aR)-3-(difluoromethyl)-5,5-difluoro-3b,4,4a,5-tetrahydro-1H-cyclopropa[3,4]cyclopenta[1,2-c]pyrazol-1-yl)acetamide] | – | > 1000 | – | EC50 ([1]; Renilla, NL43, Table 1a): 26 nM
Cn1nc(NS(C)(=O)=O)c2c(Cl)ccc(-n3c([C@H](Cc4cc(F)cc(F)c4)NC(=O)Cn4nc(C(F)F)c5c4C(F)(F)[C@@H]4C[C@H]54)nc4ncccc4c3=O)c21 (single isomer, unassigned) [Example 10.39] | – | – | > 10000 | EC50 ([1]; Table 1): 6.98 nM
O=C(Cc1c[nH]c2ccc(F)cc12)NC(Cc1cc(F)cc(F)c1)c1nc2cn[nH]c2cc1-c1ccc2scnc2c1 (single isomer, unassigned) [Example 3.5, N-(1-(6-(benzo[d]thiazol-5-yl)-1H-pyrazolo[4,3-b]pyridin-5-yl)-2-(3,5-difluorophenyl)ethyl)-2-(5-fluoro-1H-indol-3-yl)acetamide] | – | – | 32100 | EC50 ([1]; Table 1): 20 nM
Cn1ccc2nc([C@H](Cc3cc(F)cc(F)c3)NC(=O)Cn3nc(C(F)F)c4c3C(F)(F)[C@@H]3C[C@H]43)c(-c3ccc(Cl)c4c(NS(C)(=O)=O)nn(C)c34)cc21 (single isomer, unassigned) [Example 119] | – | > 10000 | – | EC50 ([1]; Renilla, NL43, Table 1a): 0.0924 nM
O=C(Cn1nc(C(F)F)c2c1C(F)(F)[C@@H]1C[C@H]21)N[C@@H](Cc1cc(F)cc(F)c1)c1nc2cn[nH]c2cc1-c1ccc(F)c(C(=O)NS(=O)(=O)C2CC2)c1 [Example 10.28, N-(cyclopropylsulfonyl)-5-(5-((S)-1-(2-((3bS,4aR)-3-(difluoromethyl)-5,5-difluoro-3b,4,4a,5-tetrahydro-1H-cyclopropa[3,4]cyclopenta[1,2-c]pyrazol-1-yl)acetamido)-2-(3,5-difluorophenyl)ethyl)-1H-pyrazolo[4,3-b]pyridin-6-yl)-2-fluorobenzamide] | – | – | > 10000 | EC50 ([1]; Renilla, NL43, Table 1): 510 nM
Cn1nc(NS(C)(=O)=O)c2c(Cl)ccc(-n3c([C@H](Cc4cc(F)cc(F)c4)NC(=O)Cn4ccc(C5CC5)n4)nc4ccc(OC(F)(F)F)cc4c3=O)c21 (single isomer, unassigned) [Example 152] | 173 | > 1000 | – | –
Cn1nc(NS(C)(=O)=O)c2c(Cl)ccc(-n3c([C@H](Cc4cc(F)cc(F)c4)NC(=O)Cn4nc(C(F)F)c5c4C(F)(F)[C@@H]4C[C@H]54)nc4cc(C(F)(F)F)ccc4c3=O)c21 (single isomer, unassigned) [Example 137] | 9.89 | > 1000 | – | –
Cc1nc2nc(C(Cc3cc(F)cc(F)c3)NC(=O)Cn3nc(C(F)F)c4c3CCC4)c(-c3ccc(Cl)c4c(NS(C)(=O)=O)nn(C)c34)cc2s1 (single isomer, unassigned) [Example 2.3, N-(1-(6-(4-chloro-1-methyl-3-(methylsulfonamido)-1H-indazol-7-yl)-2-methylthiazolo[4,5-b]pyridin-5-yl)-2-(3,5-difluorophenyl)ethyl)-2-(3-(difluoromethyl)-5,6-dihydrocyclopenta[c]pyrazol-1(4H)-yl)acetamide] | – | – | > 10000 | EC50 ([1]; Table 1): 0.1 nM
COc1ccc2nc([C@H](Cc3cc(F)cc(F)c3)NC(=O)Cn3nc(C(F)F)c4c3C(F)(F)[C@@H]3C[C@H]43)n(-c3ccc(Cl)c4c(NS(C)(=O)=O)nn(C)c34)c(=O)c2c1 (single isomer, unassigned) [Example 173] | 32 | > 1000 | – | –
